From patent US20210292330A1, “PYRROLIDINE-FUSED HETEROCYCLES” (Erasca, Inc., priority 2020, published 2021)

Target: T1, KRAS 4B G12C protein (Homo sapiens, UniProt P01116, G12C)
T1 construct: This protein contained 188 amino acids in total, including an N-terminal 6-Histidine tag; made in house; host or cells: E. coli BL21
Assay: In vitro covalent adduct formation (CAF) assay by LC-MS
Type: binding
Conditions: compound 10 μM, protein 5 μM, 22° C., percentage of protein bound by the compound
Procedure, shortened: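 Recombinant His-TEV-tagged KRAS 4B G12C (residues 1-169, E. coli) at 5 μM in Tris-buffered saline pH 7.4 was incubated with 10 μM compound (4% DMSO) at 22° C. for one hour, sampling over time. Intact-mass LC-MS free:adduct ratios gave % protein bound; duplicates.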

Row | SMILES | CAF (10 minutes/60 minutes) at 10 micromolar: 10 minutes | CAF (10 minutes/60 minutes) at 10 micromolar: 60 minutes
1 | C=CC(=O)N1C2CCCC1CN(c1nc(OC[C@@H]3CCCN3C)nc3c1CN(Cc1cc(O)ccc1Cl)C3)C2 [1-149] | 0% | 8%
2 | C=CC(=O)N1CCN(c2nc(OC[C@@H]3CCCN3C)nc3c2CN(C2CCc4ccccc42)C3)[C@@H](C#N)C1 (some centres unmarked) [1-150] | 21% | 31%
3 | C=CC(=O)N1CCN(c2nc(OC[C@@H]3CCCN3CCF)nc3c2CN(C2CCc4ccccc42)C3)C[C@@H]1CC#N (some centres unmarked) [1-151] | 81% | 91%
4 | C=CC(=O)N1CCN(c2nc(OC3CC3)nc3c2CN(C2CCc4ccccc42)C3)C[C@@H]1CC#N (some centres unmarked) [1-152] | 2% | 19%
5 | C=C(F)C(=O)N1CCN(c2nc(OC[C@@H]3CCCN3C)nc3c2CN(C2CCc4cccc(Cl)c42)C3)C[C@@H]1CC#N (some centres unmarked) [1-153] | 46% | 78%
6 | C=C(F)C(=O)N1CCN(c2nc(OC[C@@H]3CCCN3C)nc3c2CN(C2CCc4cccc(Cl)c42)C3)C[C@@H]1CC#N (some centres unmarked) [1-154] | 52% | 82%
7 | C=CC(=O)N1CCN(c2nc(OC[C@@H]3CCCN3C)nc3c2CN(C2CCc4ccccc42)C3)C[C@@H]1C#N (stereo partly drawn) [1-155, (2R)-1-acryloyl-4-(6-(2,3-dihydro-1H-inden-1-yl)-2-(((S)-1-methylpyrrolidin-2-yl)methoxy)-6,7-dihydro-5H-pyrrolo[3,4-d]pyrimidin-4-yl)piperazine-2-carbonitrile] | 66% | 82%
8 | C=CC(=O)N1CCN(c2nc(OC[C@@H]3CCCN3C)nc3c2CN(C2CCc4ccccc42)C3)[C@H](C#N)C1 (some centres unmarked) [1-156] | 11% | 29%
9 | C=CC(=O)N1CCN(c2nc(OC[C@@H]3CCCN3C)nc3c2CN(Cc2c(Cl)ccc4c2CCCO4)C3)C[C@@H]1CC#N [1-158] | 49% | 89%
10 | C=CC(=O)N1CCN(c2nc(OC[C@@H]3CCCN3C)nc3c2CN(C2CCc4ccccc42)C3)C[C@@H]1C(N)=O (stereo partly drawn) [1-159, (2R)-1-acryloyl-4-(6-(2,3-dihydro-1H-inden-1-yl)-2-(((S)-1-methylpyrrolidin-2-yl)methoxy)-6,7-dihydro-5H-pyrrolo[3,4-d]pyrimidin-4-yl)piperazine-2-carboxamide] | 10% | 19%
11 | C=CC(=O)N1CC2CCC1CN2c1nc(OC[C@@H]2CCCN2C)nc2c1CN(Cc1cc(O)ccc1Cl)C2 (some centres unmarked) [1-160] | 34% | 67%
12 | C=CC(=O)N1CC2CCC1CN2c1nc(OC[C@@H]2CCCN2C)nc2c1CN(Cc1cc(OC)ccc1Cl)C2 (some centres unmarked) [1-161] | 0%/ 0% | 0%/ 0%
13 | C#C[C@H]1CN(C(=O)C=C)CCN1c1nc(OC[C@@H]2CCCN2C)nc2c1CN(C1CCc3ccccc31)C2 (stereo partly drawn) [1-162, 1-[(3S)-4-[6-(2,3-dihydro-1H-inden-1-yl)-2-{[(2S)-1-methylpyrrolidin-2-yl]methoxy}-5H,7H-pyrrolo[3,4-d]pyrimidin-4-yl]-3-ethynylpiperazin-1-yl]prop-2-en-1-one] | 2% | 12%
14 | C=CC(=O)N1CCN(c2nc(OC[C@@H]3CCCN3C)nc3c2CN(C2CCc4ccccc42)C3)C[C@H]1C(N)=O (some centres unmarked) [1-163] | – | NA/ 55%
15 | C=CC(=O)N1CCN(c2nc(OC[C@@H]3CCCN3C)nc3c2CN(Cc2cccc4ccccc24)C3)C[C@@H]1CC#N [1-164] | 93% | 95%
